≈ marks a conversion by molar mass, not a printed value. Like-named read-outs stand apart in the source and are kept apart here.
What was measured:
Candida albicans = assay: Minimal Inhibitory Concentration (MIC) assay, broth microdilution per CLSI; format: cell-based; details: Candida albicans, read-out: Minimum Inhibitory Concentrations against Yeast Isolates, Candida albicans;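 also: two read times 24 hr and 48 hr of incubation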
Summary of the method: (§1)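 CLSI broth microdilution in RPMI with 0.165 M MOPS, pH 7.0, inoculum from 0.5 McFarland suspension diluted 1:100; compounds in DMSO. Incubation at 35°C for about 24-48 hr; MIC is lowest concentration without visible growth, fluconazole at prominent decrease in growth.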

Candida glabrata = assay: as above; format: cell-based; details: Nakaseomyces glabratus, read-out: Minimum Inhibitory Concentrations against Yeast Isolates, Candida glabrata;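 also: two read times 24 hr and 48 hr of incubation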
Summary of the method: as §1

Candida parapsilosis = assay: as above; format: cell-based; details: Lodderomyces parapsilosis, read-out: Minimum Inhibitory Concentrations against Yeast Isolates, Candida parapsilosis;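 also: two read times 24 hr and 48 hr of incubation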
Summary of the method: as §1

C. glabrata = assay: Checkerboard FIC assay in combination with fluconazole (MIC alone and in combination, FICI); format: cell-based, Candida glabrata; details: for FICI of combination resulting in fluconazole MIC of: 2 ug/mL / FICI of combination resulting in fluconazole MIC of: 4 ug/mL / FICI of combination resulting in fluconazole MIC of: 8 ug/mL: FICI calculated using a fluconazole MIC of 16 μg/mL; for FICI of combination resulting in fluconazole MIC of: 2 ug/mL (value in parenthesis) / FICI of combination resulting in fluconazole MIC of: 4 ug/mL (value in parenthesis) / FICI of combination resulting in fluconazole MIC of: 8 ug/mL (value in parenthesis): FICI using a fluconazole MIC of 128 μg/mL; for MIC: Nakaseomyces glabratus; for Concentration of Methylgene compound to synergize fluconazole MIC to 2 ug/mL / Concentration of Methylgene compound to synergize fluconazole MIC to 4 ug/mL / Concentration of Methylgene compound to synergize fluconazole MIC to 8 ug/mL: in combination with fluconazole; for Concentration of Methylgene compound to synergize fluconazole MIC to 2 ug/mL: fluconazole MIC lowered to 2 ug/mL; for Concentration of Methylgene compound to synergize fluconazole MIC to 4 ug/mL: fluconazole MIC lowered to 4 ug/mL; for Concentration of Methylgene compound to synergize fluconazole MIC to 8 ug/mL: fluconazole MIC lowered to 8 ug/mL; for Multiple of compound MIC to synergize fluconazole MIC to 2 ug/mL / Multiple of compound MIC to synergize fluconazole MIC to 4 ug/mL / Multiple of compound MIC to synergize fluconazole MIC to 8 ug/mL: concentration in combination as multiple of the compound's MIC alone; for Multiple of compound MIC to synergize fluconazole MIC to 2 ug/mL: fluconazole MIC 2 ug/mL; for Multiple of compound MIC to synergize fluconazole MIC to 4 ug/mL: fluconazole MIC 4 ug/mL; for Multiple of compound MIC to synergize fluconazole MIC to 8 ug/mL: fluconazole MIC 8 ug/mL
Summary of the method: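 C. glabrata was tested by CLSI broth microdilution checkerboard, crossing 2-fold dilutions of compound with 2-fold dilutions of fluconazole. The medium was RPMI with 0.165 M MOPS at pH 7.0, inoculated from a 0.5 McFarland suspension diluted 1:100, then incubated about 48 h at 35 °C. Single-agent MICs gave the FIC and FICI values.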

[1] = 24 hr reading (first value of cell 24 hr/48 hr)
[2] = 48 hr reading (second value of cell 24 hr/48 hr)
[3] = MIC of the example compound alone against C. glabrata in the checkerboard assay, approximately 48 hr, read-out: Methylgene MIC
[4] = test compound alone, C. glabrata, approx. 48 hr at 35° C., read-out: Compound MIC

| SMILES | MIC (Candida albicans; [1]) [µg/mL] | MIC (Candida albicans; [2]) [µg/mL] | MIC (Candida glabrata; [1]) [µg/mL] | MIC (Candida glabrata; [2]) [µg/mL] | MIC (Candida parapsilosis; [1]) [µg/mL] | MIC (Candida parapsilosis; [2]) [µg/mL] | FICI of combination resulting in fluconazole MIC of: 2 ug/mL (C. glabrata; C. glabrata) | FICI of combination resulting in fluconazole MIC of: 4 ug/mL (C. glabrata; C. glabrata) | FICI of combination resulting in fluconazole MIC of: 8 ug/mL (C. glabrata; C. glabrata) | FICI of combination resulting in fluconazole MIC of: 2 ug/mL (value in parenthesis) (C. glabrata; C. glabrata) | FICI of combination resulting in fluconazole MIC of: 4 ug/mL (value in parenthesis) (C. glabrata; C. glabrata) | FICI of combination resulting in fluconazole MIC of: 8 ug/mL (value in parenthesis) (C. glabrata; C. glabrata) | MIC (C. glabrata; [3]) [µg/mL] | MIC (C. glabrata; [4]) [µg/mL] | Concentration of Methylgene compound to synergize fluconazole MIC to 2 ug/mL (C. glabrata; C. glabrata) [µg/mL] | Concentration of Methylgene compound to synergize fluconazole MIC to 4 ug/mL (C. glabrata; C. glabrata) [µg/mL] | Concentration of Methylgene compound to synergize fluconazole MIC to 8 ug/mL (C. glabrata; C. glabrata) [µg/mL] | Multiple of compound MIC to synergize fluconazole MIC to 2 ug/mL (C. glabrata) | Multiple of compound MIC to synergize fluconazole MIC to 4 ug/mL (C. glabrata) | Multiple of compound MIC to synergize fluconazole MIC to 8 ug/mL (C. glabrata) |
| --- | --- | --- | --- | --- | --- | --- | --- | --- | --- | --- | --- | --- | --- | --- | --- | --- | --- | --- | --- | --- |
| O=C(Cc1ccc(CCCCc2ccc(O)cc2)cc1)NO [Example 15, N-hydroxy-2-(4-(4-(4-hydroxyphenyl)butyl)phenyl)acetamide] | > 16 | > 16 | > 8 | > 8 | > 16 | > 16 | 0.375 | 0.500 | 0.625 | 0.266 | 0.281 | 0.188 | 8 | 8 | 2 | 2 | 1 | (¼x) | (¼x) | (⅛x) |
| O=C(Cc1ccc(CCCCc2ccc(OCCCN3CCOCC3)cc2)cc1)NO [Example 16, N-hydroxy-2-(4-(4-(4-(3-morpholinopropoxy)phenyl)butyl)phenyl)acetamide] | > 16 | > 16 | > 32 | > 32 | > 16 | > 16 | 0.375 | 0.500 | 0.625 | 0.266 | 0.281 | 0.188 | 2 | 2 | 0.5 | 0.5 | 0.25 | (¼x) | (¼x) | (⅛x) |
| O=C(Cc1ccc(CCCCc2ccc(C(=O)N3CCN(CCn4ccnc4)CC3)cc2)cc1)NO [Example 21, 2-(4-(4-(4-(4-(2-(1H-imidazol-1-yl)ethyl)piperazine-1-carbonyl)phenyl)butyl)phenyl)-N-hydroxyacetamide] | > 64 | > 64 | 16 (≈ 32.7 µM) | 32 (≈ 65.4 µM) | > 64 | > 64 | 0.313 | 0.250 | 0.375 | 0.266 | 0.156 | 0.188 | 16 | 16 | 4 | 2 | 2 | (¼x) | (⅛X) | (⅛X) |
| O=C(Cc1ccc(CCCCc2ccc(C(=O)NCCCn3ccnc3)cc2)cc1)NO [Example 22, N-(3-(1H-imidazol-1-yl)propyl)-4-(4-(4-(2-(hydroxyamino)-2-oxoethyl)phenyl)butyl)benzamide] | > 8 | > 8 | 8 (≈ 18.4 µM) | > 8 | > 8 | > 8 | 0.188 | 0.250 | 0.313 | 0.141 | 0.156 | 0.125 | 16 | 16 | 2 | 2 | 1 | (⅛x) | (⅛x) | ( 1/16x) |
| Cn1cnc(CNC(=O)c2ccc(CCCCc3ccc(CC(=O)NO)cc3)cc2)c1 [Example 23, 4-(4-(4-(2-(hydroxyamino)-2-oxoethyl)phenyl)butyl)-N-((1-methyl-1H-imidazol-4-yl)methyl)benzamide] | > 8 | > 8 | 8 (≈ 19 µM) | > 8 | > 8 | > 8 | 0.313 | 0.250 | 0.375 | 0.266 | 0.156 | 0.188 | > 8 | > 8 | 4 | 2 | 2 |  |  |  |

Other lines, results leading:

| MIC (Candida albicans; [1]) [µg/mL] | MIC (Candida albicans; [2]) [µg/mL] | MIC (Candida glabrata; [1]) [µg/mL] | MIC (Candida glabrata; [2]) [µg/mL] | MIC (Candida parapsilosis; [1]) [µg/mL] | MIC (Candida parapsilosis; [2]) [µg/mL] | FICI of combination resulting in fluconazole MIC of: 2 ug/mL (C. glabrata; C. glabrata) | FICI of combination resulting in fluconazole MIC of: 4 ug/mL (C. glabrata; C. glabrata) | FICI of combination resulting in fluconazole MIC of: 8 ug/mL (C. glabrata; C. glabrata) | FICI of combination resulting in fluconazole MIC of: 2 ug/mL (value in parenthesis) (C. glabrata; C. glabrata) | FICI of combination resulting in fluconazole MIC of: 4 ug/mL (value in parenthesis) (C. glabrata; C. glabrata) | FICI of combination resulting in fluconazole MIC of: 8 ug/mL (value in parenthesis) (C. glabrata; C. glabrata) | MIC (C. glabrata; [3]) [µg/mL] | MIC (C. glabrata; [4]) [µg/mL] | Concentration of Methylgene compound to synergize fluconazole MIC to 2 ug/mL (C. glabrata; C. glabrata) [µg/mL] | Concentration of Methylgene compound to synergize fluconazole MIC to 4 ug/mL (C. glabrata; C. glabrata) [µg/mL] | Concentration of Methylgene compound to synergize fluconazole MIC to 8 ug/mL (C. glabrata; C. glabrata) [µg/mL] | Multiple of compound MIC to synergize fluconazole MIC to 2 ug/mL (C. glabrata) | Multiple of compound MIC to synergize fluconazole MIC to 4 ug/mL (C. glabrata) | Multiple of compound MIC to synergize fluconazole MIC to 8 ug/mL (C. glabrata) | SMILES |
| --- | --- | --- | --- | --- | --- | --- | --- | --- | --- | --- | --- | --- | --- | --- | --- | --- | --- | --- | --- | --- |
| 16 (≈ 48.9 µM) | > 64 | 32 (≈ 97.7 µM) | 64 (≈ 195 µM) | 32 (≈ 97.7 µM) | > 64 | > 0.563 | > 0.625 | > 0.750 | > 0.516 | > 0.531 | > 0.563 | > 16 | > 16 | 16 | 16 | 16 |  |  |  | O=C(Cc1ccc(CCCCc2ccc(C(=O)O)cc2)cc1)NO [Example 14, 4-(4-(4-(2-(hydroxyamino)-2-oxoethyl)phenyl)butyl)benzoic acid] |
| 16 (≈ 50.7 µM) | 32 (≈ 101 µM) | 1 (≈ 3.17 µM) | 2 (≈ 6.34 µM) | 32 (≈ 101 µM) | 32 (≈ 101 µM) | 0.313 | 0.375 | 0.500 | 0.266 | 0.281 | 0.313 | 2 | 2 | 0.5 | 0.5 | 0.5 | (¼x) | (¼x) | (¼x) | O=C(Cc1ccc(CCCCc2ccc(O)c(O)c2)cc1)NO [Example 19, 2-(4-(4-(3,4-dihydroxyphenyl)butyl)phenyl)-N-hydroxyacetamide] |
| > 8 | > 8 | 2 (≈ 3.91 µM) | 2 (≈ 3.91 µM) | > 8 | > 8 | 0.563 | 0.375 | 0.500 | 0.516 | 0.281 | 0.313 | 1 | 1 | 0.5 | 0.25 | 0.25 | (½x) | (¼x) | (¼x) | O=C(Cc1ccc(CCCCc2ccc(C(=O)N3CCN(C/C=C/c4ccccc4)CC3)cc2)cc1)NO [Example 20, (E)-2-(4-(4-(4-(4-cinnamylpiperazine-1-carbonyl)phenyl)butyl)phenyl)-N-hydroxyacetamide] |

Source: US20140081017A1, “Histone Deacetylase Inhibitors for Enhancing Activity of Antifungal Agents” (METHYLGENE INC., priority 2012, published 2014)
